According to patent US20240425502A1, “BICYCLIC HETEROAROMATIC COMPOUNDS AND THEIR USE AS PEST CONTROL AGENTS” (PI INDUSTRIES LTD., priority 2021, published 2024):

What was measured:
Format in all cases: in vivo
Nilaparvata lugens = Nilaparvata lugens seedling dip test (paddy seedlings, third instar nymphs); conditions: 72 h after release, dead and moribund combined, compared to untreated control, read-out: percent mortality
Bemisia tabaci = Bemisia tabaci leaf dip test (brinjal leaves, whitefly adults); conditions: foliar, 72 h after release, dead and moribund combined, compared to untreated control, read-out: percent mortality
Method in brief: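 Brinjal leaves dipped 10 s in compound diluted in 0.01% Triton-X, dried, then exposed to freshly emerged whitefly adults at 25 °C and 70% RH. Dead plus moribund adults counted after 72 h; percent mortality calculated relative to untreated control.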

Myzus persicae = Myzus persicae leaf dip test (capsicum leaves, third instar nymphs); conditions: foliar, 72 h after release, dead and moribund combined, compared to untreated control, read-out: percent mortality

Measured: mortality at 300 ppm

O=c1nc2n(Cc3cnc(Cl)nc3)cccc-2c(=O)n1-c1ccc(F)cc1Cl [Compound 225, 3-(2-chloro-4-fluorophenyl)-8-((2-chloropyrimidin-5-yl)methyl)pyrido[2,3-d]pyrimidine-2,4(3H,8H)-dione]
≥ 70%: all assays above

O=c1nc2n(Cc3cnc(Cl)nc3)cccc-2c(=O)n1-c1cccc(Br)c1 [Compound 231, 3-(3-bromophenyl)-8-((2-chloropyrimidin-5-yl)methyl)pyrido[2,3-d]pyrimidine-2,4(3H,8H)-dione]
≥ 70%: all assays above

O=c1nc2n(Cc3cnc(Cl)nc3)cccc-2c(=O)n1-c1ccc(F)c(Br)c1 [Compound 234, 3-(3-bromo-4-fluorophenyl)-8-((2-chloropyrimidin-5-yl)methyl)pyrido[2,3-d]pyrimidine-2,4(3H,8H)-dione]
≥ 70%: all assays above

O=c1nc2n(Cc3cnc(Cl)nc3)cccc-2c(=O)n1-c1ccc(Br)c(F)c1 [Compound 235, 3-(4-bromo-3-fluorophenyl)-8-((2-chloropyrimidin-5-yl)methyl)pyrido[2,3-d]pyrimidine-2,4(3H,8H)-dione]
≥ 70%: all assays above

O=c1nc2n(Cc3cnc(Cl)s3)cccc-2c(=O)n1-c1ccc(F)c(C(F)(F)F)c1 [Compound 242, 8-((2-chlorothiazol-5-yl)methyl)-3-(4-fluoro-3-(trifluoromethyl)phenyl)pyrido[2,3-d]pyrimidine-2,4(3H,8H)-dione]
≥ 70%: all assays above

O=c1nc2n(Cc3cnc(Cl)s3)cccc-2c(=O)n1-c1ccc(OCC(F)(F)F)cc1 [Compound 243, 8-((2-chlorothiazol-5-yl)methyl)-3-(4-(2,2,2-trifluoroethoxy)phenyl)pyrido[2,3-d]pyrimidine-2,4(3H,8H)-dione]
≥ 70%: all assays above

O=c1nc2n(Cc3cnc(Cl)nc3)cccc-2c(=O)n1-c1cc(F)cc(C(F)(F)F)c1 [Compound 244, 8-((2-chloropyrimidin-5-yl)methyl)-3-(3-fluoro-5-(trifluoromethyl)phenyl)pyrido[2,3-d]pyrimidine-2,4(3H,8H)-dione]
≥ 70%: all assays above

O=c1nc2n(Cc3ccc(Cl)nc3)cccc-2c(=O)n1-c1cccc(SC(F)(F)F)c1 [Compound 246, 8-((6-chloropyridin-3-yl)methyl)-3-(3-((trifluoromethyl)thio)phenyl)pyrido[2,3-d]pyrimidine-2,4(3H,8H)-dione]
≥ 70%: all assays above

O=c1nc2n(Cc3cnc(Cl)s3)cccc-2c(=O)n1-c1ccc2c(c1)OC(F)(F)O2 [Compound 247, 8-((2-chlorothiazol-5-yl)methyl)-3-(2,2-difluorobenzo[d][1,3]dioxol-5-yl)pyrido[2,3-d]pyrimidine-2,4(3H,8H)-dione]
≥ 70%: all assays above
